# Laboratory results from patent publication US8455448B2, “Myostatin isoform” (Myostin Therapeutics Pty Ltd, priority 2004, dated 2013).
# “Also recorded” adds a separate entry of the source.
# System: murine C2C12 myoblasts
# Experiment: Proliferation assay of C2C12 murine myoblasts (methylene blue, absorbance 655 nm)
# Format: cell-based
# Protocol: (§1) Myoblasts were seeded in 96-well tissue culture plates (Nunc, Roskilde, Denmark) at a cell density of 1000 cells per well in 200 μl of Dulbecco's modified Eagle's medium (DMEM, Invitrogen, California) supplemented with foetal bovine serum (FBS, 10% v/v, Invitrogen), penicillin (1×10^5 IU/l, Sigma, St Louis, Mo., USA) and streptomycin (100 mg/l, Sigma) buffered with NaHCO3 containing phenol red (7.22 nmol/l) as a pH indicator, and incubated overnight at 37° C. with 5% CO2. Medium was replaced with DMEM 10% FBS test medium containing 0, 0.001, 0.003, 0.01, 0.03, 0.1, 0.3, 1, 3 or 10 μg/ml oMSV65 in a semi-random arrangement of eight replicates (n=8) for each test medium. Plates were incubated at 37° C. with 5% CO2 for 72 hours, and then the medium was removed. The wells were washed with 200 μl of phosphate buffered saline (PBS, Oxoid, UK) and fixed with 100 μl of 10% formaldehyde, 0.9% NaCl solution for at least one hour. The fixative was then removed and 100 μl of 1% methylene blue stain in 0.01 M borate buffer (pH 8.5) was added to each well and incubated for 30 min at room temperature. Excess stain was removed by four sequential washes in borate buffer. Methylene blue was eluted from the cells by the addition of 100 μl 1:1 (v/v) ethanol/0.1 HCl. The plates were gently shaken and the absorbance was measured at 655 nm using a microplate photometer (FIGS. 3a and 3b).
# as §1, with “0,” for “0, 0.001, 0.003,”, “0.01,” for “0.01, 0.03,”, “1” for “0.3, 1, 3”, “oMSV47” for “oMSV65”, “60” for “72”, “(FIG. 9).” for “(FIGS. 3a and 3b).”
# Myoblasts were seeded in 96-well tissue culture plates (Nunc, Roskilde, Denmark) at a cell density of 1000 cells per well in […] of Dulbecco's modified Eagle's medium (DMEM, Invitrogen, California) supplemented with foetal bovine serum (FBS, 10% v/v, Invitrogen), penicillin (1×10^5 IU/l, Sigma, St Louis, Mo., USA) and streptomycin (100 mg/l, Sigma) buffered with NaHCO3 containing phenol red (7.22 nmol/l) as a pH indicator, and incubated overnight at 37° C. with 5% CO2. Medium was replaced with DMEM 2.5% FBS test medium containing 0, 0.01, 0.1, 1, 5 or 10 μg/ml of the respective peptides in a semi-random arrangement of eight replicates (n=8) for each test medium. Plates were incubated at 37° C. with 5% CO2 for 80 hours, and then the medium was removed. The wells were washed with 200 μl of phosphate buffered saline (PBS, Oxoid, UK) and fixed with 100 μl of 10% formaldehyde, 0.9% NaCl solution for at least one hour. The fixative was then removed and 100 μl of 1% methylene blue stain in 0.01 M borate buffer (pH 8.5) was added to each well and incubated for 30 min at room temperature. Excess stain was removed by four sequential washes in borate buffer. Methylene blue was eluted from the cells by the addition of 100 μl 1:1 (v/v) ethanol/0.1 HCl. […]
# [1] = roMSV47 1-10,000 ng/ml, 60 h, FIG. 10
Molecule,"proliferation of murine C2C12 myoblasts (0-10 μg/ml, DMEM 2.5% FBS, 80 h, FIG. 12A and FIG. 17)",C2C12 myoblast proliferation [1],concentration of maximum proliferation enhancing activity [1] [µg/mL],"increase in myoblast proliferation (roMSV47, 60 h, FIG. 10)","myoblast cell growth (proliferation) (roMSV65 0 to 10 μg/ml, 72 h, FIG. 3A)","proliferation of murine C2C12 myoblasts (roMSV65 without myostatin, 48 h, FIG. 9)"
"roMSV47: 47 amino acid C-terminal mature ovine MSV fragment (SEQ ID NO: 50), recombinant from E. coli (IIFLEVYIQFCSILGEAVFKRQSKSIHFCQNFKIIACLCNTAAFRMK; Ovis aries)",stimulate myoblast proliferation; also recorded: stimulate C2C12 cell growth in a dose dependent manner,stimulates murine C2C12 myoblast proliferation,0.1 to 0.5,more than 2 fold,–,–
"roMSV65: 65 amino acid C-terminal peptide of ovine MSV (SEQ ID NO: 49) expressed as recombinant protein in E. coli (protein, Ovis aries) VHFYTPPYGQWIFHKERKIIFLEVYIQFCSILGEAVFKRQSKSIHFCQNFKIIACLCNTAAFRMK",–,–,–,–,stimulate myoblast cell growth in a dose dependent manner,stimulated proliferation of murine myoblasts
